# Experimental data from publication PMC11505911, “Design and Synthesis of Small Molecule Probes of MDA-9/Syntenin” (Biomolecules, 2024).
# “And” between values parts separate entries of the source, which are not always exact repeats. Identical values can stand only once. Like-named read-outs stand apart in the source and are kept apart here.
# Assays:
# MDA-9/Syntenin [1] = target: T1, MDA-9/Syntenin (Homo sapiens, UniProt O00560); design: method as in printed; details: pre-PDZ1i molecules studied en route to the discovery of PDZ1i; ref not given; cited from earlier work
# T1 construct: made in house
# T1 sequence (O00560 1-298): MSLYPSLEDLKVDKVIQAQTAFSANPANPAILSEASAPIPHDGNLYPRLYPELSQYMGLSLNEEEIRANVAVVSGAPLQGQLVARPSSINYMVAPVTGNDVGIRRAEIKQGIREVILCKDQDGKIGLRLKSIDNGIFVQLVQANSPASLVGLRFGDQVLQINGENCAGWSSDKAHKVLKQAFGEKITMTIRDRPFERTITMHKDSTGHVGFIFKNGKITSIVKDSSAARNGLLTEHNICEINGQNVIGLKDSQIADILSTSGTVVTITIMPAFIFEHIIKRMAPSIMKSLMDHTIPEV
# [2] = Aqueous solubility (qualitative); type: physicochemical; details: authors' observation
# MDA-9/Syntenin [3] = target: T1, MDA-9/Syntenin; assay: Fluorescence polarization titration of ligands into MDA-9/Syntenin; type: binding; details: 20 mM Tris-HCl, 100 mM NaCl, 0.01% PEG800, 0.05% Tween20, pH 7.4; single-site fit; minimum of two titrations
# Protocol: Spectrofluorimetric titrations were performed on a Horiba QM400 spectrometer (HORIBA Scientific, Piscataway, NJ, USA). Excitation and emission wavelengths of 280 nm and 340 nm (600 nm for the reference emission wavelength) were used, with 5 nm excitation and 12 nm emission band widths, as described earlier. Experiments were performed in ratiometric mode, with excitation and emission polarizers set to 0,0 angles at room temperature. The titration buffer was 20 mM Tris-HCl buffer, pH 7.4. The stock concentrations of protein and ligands were 40 and 300–1000 μM, respectively. Whereas the protein was prepared in the titration buffer, the ligands were prepared in DMSO. The ligands (either URD001, NGI03, or NVS125) were titrated into the protein solution in aliquots, and saturable changes in fluorescence polarization were used to calculate the affinity. […] The emission intensities were corrected for dilution effects (<10% overall). The observed change in fluorescence polarization relative to initial signal (F0) was fitted using a standard single-site binding model to obtain the dissociation constant (KD) and the maximal change in fluorescence polarization (ΔF) at saturation.
# We then explored fluorescence polarization (λEX = 280 nm, λEM = 340 nm; λREF = 600 nm) in 20 mM Tris-HCl containing 100 mM NaCl, 0.01% PEG800, and 0.05% Tween20, pH 7.4. Polarization relies on the change in molecular diffusion of the protein in the presence of a ligand as a probe of interaction. This technique worked well for PDZ1i, which presented a classic hyperbolic binding profile. […] For NGI03 and URD001, KDs of 1.1 and 3.0 μM, respectively, were measured. […] This implies that no reliable fit of the data could be obtained. Yet, based on the profile, the KD is likely to be more than 200 μM.
# [4] = design: method as in printed; details: stated in introduction; ref not given; cited from earlier work
# MDA-9/Syntenin [5] = target: T1, MDA-9/Syntenin; details: cited from earlier work
Compound,IC50 (MDA-9/Syntenin [1]),other results
Cc1cc(=O)n2nc(COc3ccccc3)nc2[nH]1 [30A9],197 µM,–
Cc1cc(=O)n2nc(C(=O)Nc3ccc(O)cc3)nc2[nH]1 [112D11],245 µM,–
Cc1cc(=O)n2nc(C(=O)Nc3ccc(N)cc3)nc2[nH]1 [112E7],944 µM,–
O=C(Nc1ccc(O)cc1)c1nc2[nH]c3c(c(=O)n2n1)CCC3 [112E12],1610 µM,–
O=C(Nc1ccc(O)c(F)c1)c1nc2[nH]c3c(c(=O)n2n1)CCC3 [112F12],166 µM,–
Cc1cc(=O)n2nc(C(=O)Nc3cc(Cl)c(O)c(Cl)c3)nc2[nH]1 [112G1],57.3 µM,–
Cc1cc(=O)n2nc(C(=O)Nc3ccc(O)c(F)c3)nc2[nH]1 [112G2],147 µM,–
O=C(Nc1ccc(O)c(Cl)c1)c1nc2[nH]c3c(c(=O)n2n1)CCC3 [112G3],119 µM,–
Cc1cc(=O)n2nc(C(=O)Nc3cc(Cl)c(N)c(Cl)c3)nc2[nH]1 [112G4],34.3 µM,–
Nc1ccc(NC(=O)c2nc3[nH]c4c(c(=O)n3n2)CCC4)cc1 [112G11],263 µM,–
Cc1c(C)c(NC(=O)c2nc3[nH]c4c(c(=O)n3n2)CCC4)c(C)c(C)c1N [113B8],151 µM,–
Cc1cc(NC(=O)OC(C)(C)C)c(C)cc1CCCC(c1nnc(-c2ccccc2)o1)c1nnc(-c2ccccc2)o1 [CMPD10],151 µM,–
"Cc1cc(NC(=O)c2nc3[nH]c4c(c(=O)n3n2)CCC4)c(C)cc1NC(=O)CC(c1nnc(-c2ccccc2)o1)c1nnc(-c2ccccc2)o1 [NGI03, N-(4-(3,3-bis(5-phenyl-1,3,4-oxadiazol-2-yl)propanamido)-2,5-dimethylphenyl)-8-oxo-5,6,7,8-tetrahydro-4H-cyclopenta[d][1,2,4]triazolo[1,5-a]pyrimidine-2-carboxamide]",–,aqueous solubility [2]: aqueous solubility issues; Kd (MDA-9/Syntenin [3]): 1.1 µM
Cc1ccc(-c2nnc(CCC(=O)Cc3cc(C)c(C(=O)O)cc3C)o2)cc1 [NVS125],–,aqueous solubility [2]: good aqueous solubility; Kd (MDA-9/Syntenin [3]): > 200 µM
Cc1cc(NC(=O)c2nc3[nH]c4c(c(=O)n3n2)CCC4)c(C)cc1NC(=O)CCc1nnc(-c2ccccc2)o1 [PDZ1i],–,aqueous solubility [4]: poor aqueous solubility; Kd (MDA-9/Syntenin [3]): 78 µM and ~78 µM; Kd (MDA-9/Syntenin [5]; binding domain PDZ1): 60 to 70 µM
"Cc1cc(NC(=O)c2nc3[nH]c4c(c(=O)n3n2)CCC4)c(C)cc1CCCC(c1nnc(-c2ccccc2)o1)c1nnc(-c2ccccc2)o1 [URD001, N-(4-(4,4-bis(5-phenyl-1,3,4-oxadiazol-2-yl)butyl)-2,5-dimethylphenyl)-8-oxo-5,6,7,8-tetrahydro-4H-cyclopenta[d][1,2,4]triazolo [1,5-a]pyrimidine-2-carboxamide]",–,aqueous solubility [2]: aqueous solubility issues; Kd (MDA-9/Syntenin [3]): 3 µM
Ephrin hexapeptide: hexapeptide epitope from ephrin B binding the PDZ2 domain (NIYYKV; Paralogue and species inferred; terminal caps unknown),–,Kd (MDA-9/Syntenin [5]; binding domain PDZ2): 790 µM
IVMT-Rx-3: polyethylene glycol conjugation from truncated PDZ1i with a PDZ2-binding hexapeptide (TNEYYF),–,"Kd (MDA-9/Syntenin [5]; binding domain PDZ1, PDZ2): 63 µM"
Neurexin hexapeptide: hexapeptide epitope from neurexin binding the PDZ2 domain (TNEYYV),–,Kd (MDA-9/Syntenin [5]; binding domain PDZ2): 100 µM
